From patent US20120156137A1, “COMPOSITION FOR TREATMENT OF ATOPIC DERMATITIS COMPRISING GLUCOSAMINE AND DERIVATIVES THEREOF AND A METHOD FOR TREATMENT OF ATOPIC DERMATITIS USING THEM” (priority 2006, published 2012)

Tests used:
[1] = tested on: TPA-induced mouse ear edema model; test: Anti-inflammatory activity of glucosamine topically applied to the TPA-induced mouse ear edema model; type: in vivo; conditions: male ICR mice; topical 0.5%, 1% or 2% glucosamine 15 min and 6 hrs after TPA; read 24 hrs after TPA
Procedure: Ear edema was induced in mice using 12-O-tetradecanoylphorbol 13-acetate (TPA), as follows. TPA was prepared at 2.5[…]/20[…] in acetone. ICR mice were prepared one week before this test and allowed free access to food and water in order to minimize the stress of transport. 20[…] of the TPA solution was applied onto right ears of male ICR mice (7 weeks old). After 24 hrs, mice were sacrificed by cervical dislocation, and the right ears were punched using a 6-mm biopsy punch. The ear punches were weighed using a microbalance, finely teased, and subjected to a myeloperoxidase (MPO) assay. Thirty male ICR mice (7 weeks old, weighing 25-32 g) were divided into six groups, each of which consisted of five mice. Experimental animals were allowed free access to food and water for one week in order to minimize the stress of transport. Glucos amine and a control drug were diluted in sterile distilled water and then diluted 1:9 in acetone. Group 1 was not treated with TPA or any drug. Group 2 was treated with TPA alone on the right ear skin thereof. Group 3 was topically treated with TPA, and then with 20[…] of 0.5% glucosamine in sterile distilled water/acetone (1:9) 15 min and 6 hrs after TPA application. According to the same procedure as in Group 3, Group 4 was topically treated with 1% glucosamine, and Group 5 with 2% glucosamine. […]

[2] = tested on: TPA-induced mouse ear edema model; test: Anti-inflammatory activity of glucosamine orally administered to the TPA-induced mouse ear edema model; type: in vivo; conditions: male ICR mice; oral 5, 10 or 20 mg/kg glucosamine 15 min and 6 hrs after TPA; read 24 hrs after TPA
Procedure: Ear edema was induced in mice using 12-O-tetradecanoylphorbol 13-acetate (TPA), as follows. TPA was prepared at 2.5[…]/20[…] in acetone. ICR mice were prepared one week before this test and allowed free access to food and water in order to minimize the stress of transport. 20[…] of the TPA solution was applied onto right ears of male ICR mice (7 weeks old). After 24 hrs, mice were sacrificed by cervical dislocation, and the right ears were punched using a 6-mm biopsy punch. The ear punches were weighed using a microbalance, finely teased, and subjected to a myeloperoxidase (MPO) assay. Thirty five male ICR mice (7 weeks old, weighing 25-32 g) were divided into seven groups, each of which consisted of five mice. Experimental animals were allowed free access to food and water for one week in order to minimize the stress of transport. Glucosamine and a control drug were diluted in sterile physiological saline. Group 1 was not treated with TPA or any drug. Group 2 was treated with TPA alone on the right ear skin thereof. Group 3 was topically applied with TPA, and then orally administered through a sonde with 0.5 ml of glucosamine in sterile physiological saline 15 min and 6 hrs after TPA application. […]

atopy patients = test: Clinical test for therapeutic effects of glucosamine on atopy; type: in vivo, human; conditions: twenty atopy patients
Procedure: A clinical test was performed with twenty atopy patients in order to determine whether glucosamine has therapeutic effects on atopy in practice. The clinical test was conducted by the Department of Dermatology, Dongguk University Hospital (attending physician: A Y Lee; the clinical test was approved by an IRB of Dongguk University Hospital). Twenty atopy patients were dosed with glucosamine in the form of a tablet and a cream. In brief, glucosamine was orally administered at a daily dose of 500 mg for a period of two weeks. The cream (5% glucosamine) was topically applied to a desired site of the skin twice a day for a period of four weeks.

transglutaminase = conditions: as described in Korean Pat. Application No. 10-2006-56942; cited from earlier work

N[C@H]1C(O)O[C@H](CO)[C@@H](O)[C@@H]1O (some centres unmarked) [glucosamine]
inhibition of acute inflammation (ear punch weight and MPO activity, FIGS. 1 and 2) [1]: inhibit acute inflammation regardless of concentrations thereof
inhibition of acute inflammation (ear punch weight and MPO activity, FIGS. 3 and 4) [2]: inhibited acute inflammation regardless of the concentration thereof
therapeutic effects on atopy, external use (FIG. 5) (atopy patients; cream (5% glucosamine) topically twice a day for four weeks): significant therapeutic effects on atopy
therapeutic effects on atopy, oral administration (FIG. 5) (atopy patients; tablet, oral daily dose 500 mg for two weeks): significant therapeutic effects on atopy
inhibitory activity toward transglutaminase (transglutaminase): has inhibitory activity toward transglutaminase
